This is an account of results in ChEMBL document CHEMBL4393739, “Design, synthesis and anti-inflammatory evaluation of novel pyrrolo[2,3-d]pyrimidin derivatives as potent JAK inhibitors” (Bioorg Med Chem, 2019).

Calls of active or inactive are those of the source. The calls are words filed in the database; no cut-off is given here.

In data set [1] the test system is RAW264.7. Put plainly: Antiinflammatory activity in LPS-induced mouse RAW264.7 cells assessed as reduction in NO generation by measuring NO level at 10 ug/ml measured after 18 hrs by Griess method. Type of data set: functional, cell-based. On the technique in general: Nitrite, measured by Griess reagent, commonly stands in for NO production.
Data set [2] deals with RAW264.7. The data set is described as follows: Antiinflammatory activity in LPS-induced mouse RAW264.7 cells assessed as reduction in NO generation by measuring NO level at 2.5 ug/ml measured after 18 hrs by Griess method. Type of data set: functional, cell-based.
The test system of data set [3] is RAW264.7. The data set is described as follows: Antiinflammatory activity in LPS-induced mouse RAW264.7 cells assessed as reduction in NO generation by measuring NO level at 5 ug/ml measured after 18 hrs by Griess method. Type of data set: functional, cell-based.
Data set [4] deals with Tyrosine-protein kinase JAK1 (Homo sapiens) (UniProt P23458). To be noted: at 10 µM.
The nature of data set [5]: Solubility of the compound. The data set is classed as physicochemical.
For data set [6], the system named is RAW264.7. Put plainly: Antiinflammatory activity in LPS-induced mouse RAW264.7 cells assessed as protection against cell damage by measuring reduction in apoptotic body formation at 10 ug/ml cotreated with LPS measured after 18 hrs by light microscopy. Type of data set: functional, cell-based.
For data set [7], the system named is RAW264.7. The data set is described as follows: Antiinflammatory activity in mouse RAW264.7 cells assessed as reduction in LPS-induced upregulation of IL-1 beta expression by Western blot analysis. The data set is classed as functional, cell-based. (In general: A western blot detects proteins with antibodies after separation by electrophoresis.)
Data set [8] has as its system RAW264.7. Put plainly: Antiinflammatory activity in LPS-induced mouse RAW264.7 cells assessed as protection against cell damage by measuring reduction in cell rounding at 10 ug/ml co-treated with LPS measured after 18 hrs by light microscopy. The data set is classed as functional, cell-based.
The test system of data set [9] is RAW264.7. Put plainly: Antiinflammatory activity in LPS-induced mouse RAW264.7 cells assessed as protection against cell damage by measuring reduction in cell shrinking at 10 ug/ml cotreated with LPS measured after 18 hrs by light microscopy. Type of data set: functional, cell-based.
Data set [10] has as its system RAW264.7. The data set is described as follows: Antiinflammatory activity in mouse RAW264.7 cells assessed as reduction in LPS-induced JAK2 expression by Western blot analysis. Type of data set: functional, cell-based.
Data set [11] deals with RAW264.7. The data set is described as follows: Antiinflammatory activity in mouse RAW264.7 cells assessed as reduction in LPS-induced JAK1 expression by Western blot analysis. Type of data set: functional, cell-based.
The test system of data set [12] is RAW264.7. Put plainly: Cytotoxicity against mouse RAW264.7 cells assessed as cell growth inhibition measured after 24 hrs by MTT assay. The data set is classed as cell-based. To be noted: for IC50: Mus musculus, RAW264.7, 24 h; for Activity: mouse, raw264.7, 24 h. (Formazan colour is commonly taken as a measure of viable cells.)

Sequence of Tyrosine-protein kinase JAK1 (Homo sapiens) (P23458 whole entry): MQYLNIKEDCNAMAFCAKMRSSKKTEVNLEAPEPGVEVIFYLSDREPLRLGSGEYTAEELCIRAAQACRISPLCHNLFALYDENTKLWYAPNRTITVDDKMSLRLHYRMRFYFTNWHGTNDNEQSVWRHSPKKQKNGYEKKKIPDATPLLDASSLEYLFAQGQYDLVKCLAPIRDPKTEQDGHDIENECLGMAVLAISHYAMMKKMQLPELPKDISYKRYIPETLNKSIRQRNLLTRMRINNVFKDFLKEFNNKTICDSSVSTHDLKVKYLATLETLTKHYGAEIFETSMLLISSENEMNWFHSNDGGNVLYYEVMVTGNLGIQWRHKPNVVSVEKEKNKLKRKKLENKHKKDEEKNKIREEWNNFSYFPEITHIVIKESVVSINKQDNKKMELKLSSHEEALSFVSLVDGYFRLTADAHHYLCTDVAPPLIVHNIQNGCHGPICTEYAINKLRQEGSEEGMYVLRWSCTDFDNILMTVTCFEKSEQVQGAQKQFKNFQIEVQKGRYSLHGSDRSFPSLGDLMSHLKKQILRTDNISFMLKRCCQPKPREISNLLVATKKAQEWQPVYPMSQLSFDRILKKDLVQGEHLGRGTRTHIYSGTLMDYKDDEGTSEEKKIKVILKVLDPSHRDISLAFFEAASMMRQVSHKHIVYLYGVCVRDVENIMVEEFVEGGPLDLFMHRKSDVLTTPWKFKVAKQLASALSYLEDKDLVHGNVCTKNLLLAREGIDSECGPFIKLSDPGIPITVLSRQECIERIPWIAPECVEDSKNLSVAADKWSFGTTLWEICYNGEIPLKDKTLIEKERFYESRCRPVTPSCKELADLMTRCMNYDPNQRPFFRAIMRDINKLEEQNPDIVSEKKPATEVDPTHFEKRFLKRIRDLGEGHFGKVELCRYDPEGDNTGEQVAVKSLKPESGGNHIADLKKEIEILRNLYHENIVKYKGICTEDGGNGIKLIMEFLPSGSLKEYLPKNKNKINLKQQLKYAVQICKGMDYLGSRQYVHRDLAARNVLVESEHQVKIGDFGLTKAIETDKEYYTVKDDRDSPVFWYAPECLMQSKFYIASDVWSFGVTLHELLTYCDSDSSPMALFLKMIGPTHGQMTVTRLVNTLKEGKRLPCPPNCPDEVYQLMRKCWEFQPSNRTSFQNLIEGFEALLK

Turning to `CCS(=O)(=O)N1CC(CC#N)(n2cc(-c3ncnc4[nH]ccc34)cn2)C1`, the result in the data set on RAW264.7 [1], in the data set on RAW264.7 [2] and with RAW264.7 [3] was Active.
In general, inhibition refers to the percentage by which the read-out fell short of the control. A low value points to little suppression. The compound `CCS(=O)(=O)N1CCC(n2cc(-c3ncnc4[nH]ccc34)cn2)CC1` gave an inhibition in data set [4] of 95.2%. Also, the solubility entry in [5] was “Insoluble”.
`CN1CCN(CC(=O)N2CCC(n3cc(-c4ncnc5[nH]ccc45)cn3)CC2)CC1`: the inhibition in data set [4] is 72.8%.
Still for that read-out and setting: as for `O=C(CN1CCN(CCO)CC1)N1CCC(n2cc(-c3ncnc4[nH]ccc34)cn2)CC1`, the figure is 83%.
On to `O=S(=O)(C1CC1)N1CCC(n2cc(-c3ncnc4[nH]ccc34)cn2)CC1`, for which the inhibition in [4] came out at 59.4%. Besides, the solubility entry in data set [5] is given as “Insoluble”.
Consider `COc1ccc(S(=O)(=O)N2CCC(n3cc(-c4ncnc5[nH]ccc45)cn3)CC2)cc1`, for which, in data set [4], the inhibition was found to be 53.2%. The solubility result in data set [5] is listed as “Insoluble”.
Take `O=[N+]([O-])c1cccc(S(=O)(=O)N2CCC(n3cc(-c4ncnc5[nH]ccc45)cn3)CC2)c1`: the inhibition in [4] was found to be 92.4%. In addition, the solubility result in data set [5] was “Insoluble”.
For the compound `O=S(=O)(c1cc(F)cc(F)c1)N1CCC(n2cc(-c3ncnc4[nH]ccc34)cn2)CC1`, the inhibition in data set [4] stood at 93.6%. In [5], the solubility entry was “Insoluble”.
Take `O=S(=O)(c1ccc(F)cc1)N1CCC(n2cc(-c3ncnc4[nH]ccc34)cn2)CC1`: in data set [4], the inhibition turned out to be 93.4%. In addition, in [5], the solubility result is on record as “Insoluble”.
In the same order, the values of `O=S(=O)(c1ccc(Br)cc1)N1CCC(n2cc(-c3ncnc4[nH]ccc34)cn2)CC1` are 60.3% and “Insoluble”.
With `CN(C)CC(=O)N1CCC(n2cc(-c3ncnc4[nH]ccc34)cn2)CC1`, in [4], the inhibition came out at 46.9%.
In data set [4], `O=S(=O)(c1ccccc1)N1CCC(n2cc(-c3ncnc4[nH]ccc34)cn2)CC1` returned an inhibition of 2.7%. Moreover, the solubility entry in data set [5] was “Insoluble”.
What is called IC50 is the concentration that inhibits the measured activity by half. Turning to `O=C(O)C1CCN(CC(=O)N2CCC(n3cc(-c4ncnc5[nH]ccc45)cn3)CC2)CC1`, the result in the data set with RAW264.7 [6], with RAW264.7 [7], in the data set on RAW264.7 [8] and in the data set on RAW264.7 [9] was Active. Moreover, the inhibition in data set [4] was determined as 92.5%. Besides, the Activity entry in the data set with RAW264.7 [10], in the data set on RAW264.7 [11] and in the data set with RAW264.7 [12] was “Dose-dependent effect” each time. In addition, in the data set on RAW264.7 [12], the IC50 turned out to be 80.9 µM.
Take `O=C(CN1CCOCC1)N1CCC(n2cc(-c3ncnc4[nH]ccc34)cn2)CC1`: the inhibition in data set [4] was 69.6%.
In data set [4], `Cc1ccccc1S(=O)(=O)N1CCC(n2cc(-c3ncnc4[nH]ccc34)cn2)CC1` registered an inhibition of 94.7%. Besides, the solubility result in data set [5] is “Insoluble”.
In data set [4], `CCN(CC)CC(=O)N1CCC(n2cc(-c3ncnc4[nH]ccc34)cn2)CC1` came in with an inhibition of 38.6%.
Compound `O=[N+]([O-])c1ccccc1S(=O)(=O)N1CCC(n2cc(-c3ncnc4[nH]ccc34)cn2)CC1` yielded an inhibition in [4] of 96.6%. Besides, the result in the data set on RAW264.7 [1], in the data set on RAW264.7 [2] and with RAW264.7 [3] was Active. Besides, the solubility result in [5] is “Insoluble”.
As for `Cc1ccc(S(=O)(=O)N2CCC(n3cc(-c4ncnc5[nH]ccc45)cn3)CC2)cc1`, the inhibition in [4] amounted to 92.4%. In addition, the solubility entry in data set [5] is “Insoluble”.
In the same order, the values of `O=S(=O)(c1ccc(Cl)cc1)N1CCC(n2cc(-c3ncnc4[nH]ccc34)cn2)CC1` are 63.7% and “Insoluble”.
Regarding `O=[N+]([O-])c1ccc(S(=O)(=O)N2CCC(n3cc(-c4ncnc5[nH]ccc45)cn3)CC2)cc1`, the inhibition in data set [4] was determined as 99.6%. For the same compound, in data set [5], the solubility entry is recorded as “Insoluble”.
In the same order, the values of `N#Cc1ccc(S(=O)(=O)N2CCC(n3cc(-c4ncnc5[nH]ccc45)cn3)CC2)cc1` are 72.5% and “Insoluble”.
Taken in the same sequence, the figures for `O=S(=O)(c1cccc(Br)c1)N1CCC(n2cc(-c3ncnc4[nH]ccc34)cn2)CC1` were 72.8% and “Insoluble”.
As for `CC1CCN(CC(=O)N2CCC(n3cc(-c4ncnc5[nH]ccc45)cn3)CC2)CC1`, the result in the data set with RAW264.7 [6], with RAW264.7 [7], with RAW264.7 [8], in the data set with RAW264.7 [1], in the data set with RAW264.7 [9] and with RAW264.7 [2] was Active. Further, in the data set on RAW264.7 [3], the outcome was Active. Further, the inhibition in [4] turned out to be 90.3%. Further, the Activity entry in the data set on RAW264.7 [10], in the data set on RAW264.7 [11] and in the data set on RAW264.7 [12] was “Dose-dependent effect” in each case. Further, the IC50 with RAW264.7 [12] was determined as 88.2 µM.
Take `O=C(CN1CCCCC1)N1CCC(n2cc(-c3ncnc4[nH]ccc34)cn2)CC1`: in data set [4], the inhibition is 65.6%.
In [4], `CS(=O)(=O)N1CCC(n2cc(-c3ncnc4[nH]ccc34)cn2)CC1` displayed an inhibition of 22.1%. Further, in data set [5], the solubility result is “Insoluble”.
In the case of `O=C(CN1CCCC1)N1CCC(n2cc(-c3ncnc4[nH]ccc34)cn2)CC1`, the inhibition in [4] came out at 55.1%.
